{"source": "patent US20150359884A1", "about": "“MULTI-PHOTON ISOMERISATION OF COMBRETASTATINS AND THEIR USE IN THERAPY” (priority 2011, published 2015)", "key": {"[1]": {"test": "Fluorescence quantum yields in solvents, UV one-photon excitation", "type": "physicochemical", "settings": "20° C., 290-300 nm excitation", "method": "Absorption spectra were measured in either a Perkin Elmer Lambda 25 or 950 spectrophotometer. Fluorescence measurements were made with either a Spex Fluoromax or Varian Cary Eclipse spectrofluorimeter using the spectral correction curves supplied by the manufacturers. Fluorescence quantum yields with UV (one-photon) excitation were determined using either 2-aminopyridine (Φref 0.6 [7]) or 9-chloroanthracene (Φref 0.50 in dichloromethane, determined here relative to 9,10-diphenylanthracene in cyclohexane (Φref 0.97) and anthracene in ethanol (Φref 0.28 [8]) as standards. Fluorescence quantum yields were determined from the relative slopes of plots of integrated fluorescence intensity versus (1-10^−A) for samples having absorbance A≦0.1. The square of the refractive index (n^2) correction was applied when sample and reference compounds were in different solvents. Irradiation of the samples was minimized by the use of narrow excitation slits to reduce simultaneous photoisomerization.\nThe fluorescence quantum yields for E-CA4F were generally somewhat higher than for E-CA4."}, "[2]": {"test": "Picosecond time-resolved infrared (TRIR) spectroscopy of excited states", "type": "physicochemical", "method": "The ultrafast time-resolved infrared (TRIR) experiments were performed on the ‘ULTRA’ laser system at the Science and Technology Facilities Council Rutherford Appleton Laboratory. The capabilities of the ULTRA instrument are described in detail elsewhere. Briefly, a chirped pulse amplified titanium:sapphire laser operating at 10 kHz repetition rate produced 40-80 fs duration pulses at a wavelength of 800 nm. The UV excitation pulse was generated from third harmonic generation of the 800 nm output of the amplifier with ˜50 fs duration at 266 nm, irradiating samples with a 1 μJ, 100 μm diameter beam. The mid-IR probe pulse was generated using ˜0.4 mJ of the 800 nm femtosecond output to pump an optical parametric amplifier, and difference frequency mixing of the signal and idler components. The mid-IR probe output pulses had ˜500 cm-1 bandwidth and ˜50 fs pulse duration. The UV pulses were polarized at a magic angle to the IR probe laser polarization. The timing between the pump and probe was performed using a PCcontrolled optical delay line. The sample in solution was placed between two 25 mm diameter CaF2 plates in a rasterscanned Harrick cell to limit irradiation of the sample by multiple pulses. The optical path of the sample between the two windows was controlled using a 100 μm PTFE spacer and the solution flowed using a peristaltic pump. The intensity of the transmitted mid-IR light was dispersed by a grating onto a pair of 128-element mercury-cadmium telluride array detectors (IR Associates), providing full (i.e. ˜500 cm-1) spectral coverage with every laser pulse. The overall instrument response time was ˜200 fs. A reference spectrum of the laser pulse (before the Harrick cell) was accumulated on a third, 64-element array detector and was used to remove the effects of laser fluctuations from the transient absorption data. Ground-state FTIR spectra were recorded using a Nicolet Avatar 360 spectrometer.\nFIGS. 12 and 13 show the TRIR spectra of both isomers of CA4 following ultrafast electronic excitation using 266 nm, with the ground-state FTIR spectra shown beneath the time resolved data for comparison. To date there has been little characterization of combretastatins by infrared spectroscopy. However, the ground-state FTIR spectra have obvious similarities with stilbene and on this basis we assign the 1586/1581 and 1510/1509 cm-1 bands in E-CA4/Z-CA4 to the v8a ring stretches of the phenyl groups and v19a ring stretch with additional contributions from C—H in-plane bending. In the excited state spectra, there are negative absorption bands corresponding to bleaching of the ground-state absorptions and both the E- and Z-isomers are dominated by transient bands between 1350 and 1500 cm-1. At early times the transient bands show rapid shifting over about 10 cm-1 to higher wavenumbers associated with rapid ‘cooling’ of excess vibrational energy following electronic excitation as commonly observed in other molecular systems including DNA [26] and for the C═C stretching band of E-stilbene observed by time-resolved resonance Raman spectroscopy. It is also notable that for E-CA4 at pump-probe delays up to 20 ps, the intensities of the transient bands increase and this is most likely due to molecular rearrangements taking place lowering the overall symmetry of the molecule and increasing the cross-sections of these IR active modes. […]"}, "[3]": {"settings": "dichloromethane, 266 nm excitation"}}, "data": [{"smiles": "COc1ccc(/C=C/c2cc(OC)c(OC)c(OC)c2)cc1O", "note": "[E-CA4, (E)-1-(3′,4′,5′-Trimethoxyphenyl)-2-(4″-methoxy-3″-hydroxy-phenyl)ethene]", "values": [{"measurement": "Fluorescence quantum yield φ", "setting": "[1]; DCM", "value": 0.19}, {"measurement": "Fluorescence quantum yield φ", "setting": "[1]; DMSO", "value": 0.15}, {"measurement": "Fluorescence quantum yield φ", "setting": "[1]; EtOH", "value": 0.093}, {"measurement": "Fluorescence quantum yield φ", "setting": "[1]; Ethylene glycol", "value": 0.19}, {"measurement": "Fluorescence quantum yield φ", "setting": "[1]; Glycerol", "value": 0.35}, {"measurement": "Fluorescence quantum yield φ", "setting": "[1]; Hexane", "value": 0.36}, {"measurement": "Fluorescence quantum yield φ", "setting": "[1]; MeCN", "value": 0.099}, {"measurement": "Fluorescence quantum yield φ", "setting": "[1]; MeOH", "value": 0.071}, {"measurement": "Excited state decay, longer lifetime (relaxed excited state)", "setting": "[2]; [3]", "value": "503±56", "unit": "ps"}, {"measurement": "Excited state decay, shorter lifetime (biexponential fit)", "setting": "[2]; [3]", "value": "6.5±0.46", "unit": "ps"}, {"measurement": "Lifetime of the relaxed excited state measured by TRIR", "setting": "[2]; methanol", "value": "230±14", "unit": "ps"}]}]}
